The text below walks through data of article PMC12569658, “An Orally Administered Misuse Deterrent Opioid Prodrug for Treatment of Acute Pain” (JACS Au, 2025).

In test [1] the test system is chymotrypsin and trypsin. The experiment in a line: Michaelis-Menten kinetics of pNP release in the presence of both chymotrypsin and trypsin. It counts as biochemical. As to conditions: for Km / VMax / kCat/KM (substrate specificity): chymotrypsin and trypsin 0.02 mM each, substrate 0.1-2.0 mM, 35 mM HEPES pH 7.5, 37 °C, absorbance 405 nm, average of n = 3. From the text: In order to ensure the prodrug would be cleaved effectively once it was exposed to chymotrypsin and trypsin in concentrations found in the […], we elected to optimize the peptide sequence further, particularly on the ε-amine of the lysine, to enhance the substrate efficiency (Figure B). This would help to ensure that oxycodone is released in the gastrointestinal tract. […] Previous studies have shown that chymotrypsin binding can be enhanced through additional nonbulky amino acid groups following the aromatic residue. ,− Accordingly, substrates 9 and 10, with alanine residues coupled to phenylalanine, were prepared, and their kinetics were examined. […] Coupling a third alanine to the tyrosine residue (12) increased the substrate specificity by around 5-fold compared to 11. Since coupling of alanine residues to the α-amine of 6–8 increased the percentage of pNP release (Figure A), 13 with a single alanine on the N-terminus was prepared. Compared to substrate 11 with no N-terminal alanine, there was a minimal effect on the K M, but the V Max was reduced by half, leading to a lower k Cat/K M. Since 12 had the highest k Cat/K M and the fastest V Max, we proceeded to use this peptide scaffold for further experiments. […]
(§1) General Procedure – Michaelis-Menten Kinetics […]
(§2) substrate concentration of 2.0, 1.5, 1.0, 0.5, 0.24, and 0.1 mM, maintaining a constant concentration of DMSO across all conditions. These solutions were then combined with chymotrypsin and trypsin to afford a final concentration of 0.02 mM for each enzyme. Immediately upon addition of the proteases, the 96-well plate was inserted into the plate reader and the absorbance at 405 nm was monitored over the course of 4 ho urs with time points taken every 30 seconds. The plate was incubated in the plate reader at 37 °C. All conditions were carried out in triplicate and reported as the average between the three replicates. Michaelis -Menten enzyme kinetic analysis was carried out using GraphPad Prism 8.4.3. Substrate concentrations were adjusted as needed to obtain relevant Michaelis -Menten statistics. Concentrations of substrate are shown in their respective activity plots below.

The target in another test is T1, chymotrypsin (Bos taurus, UniProt P00766).
T1 construct: purchased
In words: pNP release assay in the presence of chymotrypsin only. Type of test: biochemical. Conditions: chymotrypsin only 0.02 mM, substrate 1.5 mM, 35 mM HEPES pH 7.5, 37 °C, absorbance 405 nm, over 4 h. From the text: Using the branched lysine peptide sequences modified from our previous work, we began to explore the sequence effects on the efficiency and release rate of a model reporter molecule, p-nitrophenol (pNP). Peptides 6–8 were initially prepared to determine whether the peptide backbone length had any effect on the release of pNP in the presence of chymotrypsin alone (Figure A; see Supporting Information (SI) for synthetic procedures). Chymotrypsin promiscuity (i.e., cleavage of both sites) could lead to less misuse deterrence as only one enzyme could promote the release of the opioid. […] However, substrate 8 reached greater than 90% pNP release within 3 h (Figures A and S15). […]
The peptide was dissolved in DMSO and diluted using 35 mM HEPES buffer (pH 7.5) to a final substrate concentration of 1.5 mM, maintaining a constant concentration of DMSO across all conditions. […] Immediately upon addition of the proteases, the 96-well plate was inserted into the plate reader and the absorbance at 405 nm was monitored over the course of 4 hours with time points taken every 30 seconds. The plate was incubated in the plate reader at 37 °C. […]
substrate concentration of 2.0, 1.5, 1.0, 0.5, 0.24, and 0.1 mM, maintaining a constant concentration of DMSO across all conditions. […] The plate was incubated in the plate reader at 37 °C. […]

For test [2], the system named is chymotrypsin and trypsin. In words: Michaelis-Menten competitive inhibition release assay of 12 with peptide byproduct 19. Conditions: 19 at 1.6, 0.8, 0.4 or 0.2 mM; 12 at 0.1-2.0 mM; chymotrypsin and trypsin 0.02 mM each; 35 mM HEPES pH 7.5; n = 3. Type of test: biochemical. The text has this:
Prior to moving forward with analgesia studies in vivo, it was important to ensure that the AAAY (19) peptide byproduct from chymotrypsin cleavage was not competitively inhibiting the pNP release. This could be an issue in vivo, as the PEPT1 transepithelial transporter in the digestive tract has a very weak binding affinity for tetrapeptides. A lack of transport for 19 could lead to the accumulation and generation of a competitive inhibitor for chymotrypsin, thus reducing the overall amount of opioid released. To examine this hypothesis, Michaelis–Menten competitive inhibition enzyme kinetics were performed with chymotrypsin and trypsin for 12 in the presence of peptide 19. […] These observations enhanced our confidence in using the 12 prodrug scaffold for in vivo analgesia studies.
Competitive Inhibition Release Assay
12 was dissolved in DMSO and diluted using 35 mM HEPES buffer (pH 7.5) to a final substrate concentration of 2.0, 1.5, 1.0, 0.5, 0.24, and 0.1 mM, maintaining a constant concentration of DMSO across all conditions. 19 was added to yield a final concentration of either 1.6, 0.8, 0.4, or 0.2 mM. […] Immediately upon addition of the proteases, the 96 - well plate was inserted into the plate reader and the absorbance at 405 nm was monitored over the course of 4 hours. […]

Test [3] concerns chymotrypsin and trypsin. In words: In vitro simulated digestion (pNP release) assay with trypsin, chymotrypsin or both enzymes. It counts as biochemical. As to conditions: substrate 1.5 mM, 35 mM HEPES pH 7.5, 37 °C, n = 3. As for the experimental part:
We hypothesized that by protecting the phenol with a tert-butyl ether, chymotrypsin would not recognize the tyrosine derivative prior to passage through the acidic conditions in the stomach where the tert-butyl ether would be removed. This additional security measure removes the ability to pretreat the prodrug with store-bought digestive enzyme supplements to release the opioid.
General Procedure – Release Kinetics
The peptide was dissolved in DMSO and diluted using 35 mM HEPES buffer (pH 7.5) to a final substrate concentration of 1.5 mM, maintaining a constant concentration of DMSO across all conditions. These solutions were then combined with either chymotrypsin, trypsin, or both enzymes to afford a final concentration of 0.02 mM for each enzyme. Immediately upon addition of the proteases, the 96-well plate was inserted into the plate reader and the absorbance at 405 nm was monitored over the course of 4 hours with time points taken every 30 seconds. The plate was incubated in the plate reader at 37 °C.
as §1, §2

The subject of test [4] is C57BL/6J mice. In words: Hot plate latency after intraperitoneal injection. Type of test: in vivo, mouse. As to conditions: 30 mg/kg of oxycodone in prodrug, 55 °C hot plate, n = 6, ns vs water.
The subject of test [5] is C57BL/6J mice. Conditions: IP injection of oxycodone; ref previous reports (reference numbers not printed); cited from earlier work. The text has this: To confirm that this analgesic effect was due to enzymatic degradation of the prodrug in the digestive system, the antinociceptive effects of prodrug 20 were examined following systemic intraperitoneal (IP) injection.

As to “Ala-Lys[(Ac)Phe]-(2-(pNP-thionocarbamate)methyl)ethylamino trifluoroacetate [compound 7]”, in the test with chymotrypsin and trypsin [1], the Km is 0.941 mM, the VMax is 0.019 µM/s and the “kCat/KM (substrate specificity)” value is on record as 9.97 × 10^–7 μM^-1s^-1. In addition, on chymotrypsin, the “pNP release over the course of 4 h, chymotrypsin alone” value is listed as “less than 15%”.

As to “Ala-Ala-Ala-Tyr trifluoroacetate [compound 19]”, in the test with chymotrypsin and trypsin [2], the “competitive inhibition of pNP release from 12” value was “negligibly affected”.

For “Ac-Lys[Phe-Ala]-(2-(pNP-thionocarbamate)methyl)ethylamino trifluoroacetate [compound 9]”, in the test with chymotrypsin and trypsin [1], the Km is 1.42 mM and the VMax is 0.021 µM/s.

With “Ac-Lys[Phe-Ala-Ala]-(2-(pNP-thionocarbamate)methyl)ethylamino trifluoroacetate [compound 10]”, in the test on chymotrypsin and trypsin [1], the Km worked out at 1.97 mM, the VMax worked out at 0.225 µM/s and the “kCat/KM (substrate specificity)” value is recorded as 5.73 × 10^–6 μM^-1s^-1.

Regarding “Ac-Lys[Tyr-Ala-Ala]-(2-(pNP-thionocarbamate)methyl)ethylamino trifluoroacetate [compound 11]”, in the test on chymotrypsin and trypsin [1], the Km came out at 4 mM and the VMax was determined as 0.276 µM/s.

Regarding “Ac-Ala-Lys[Tyr-Ala-Ala]-(2-(pNP-thionocarbamate)methyl)ethylamino trifluoroacetate [compound 13]”, in the test on chymotrypsin and trypsin [1], the Km was determined as 4.16 mM and the VMax is 0.119 µM/s.

Regarding “Ac-Lys[Tyr(tBu)-Ala-Ala-Ala]-(2-(pNP-thionocarbamate)methyl)ethylamino trifluoroacetate [compound 14]”, in the test with chymotrypsin and trypsin [3] (both chymotrypsin and trypsin 0.02 mM each, absorbance 405 nm, 150 min, no acidic pretreatment), the “pNP release over 150 min” value is about 5%.

For the molecule “Ac-Lys[Tyr-Ala-Ala-Ala]-(2-(pNP-thionocarbamate)methyl)ethylamino trifluoroacetate [compound 12]”, in the test with chymotrypsin and trypsin [1], the Km stood at 2.35 mM and the VMax was found to be 0.749 µM/s. The “increase of substrate specificity (kCat/KM) compared to 11” value in the test with chymotrypsin and trypsin [1] (chymotrypsin and trypsin, relative to 11) is recorded as “around 5 fold”. Besides, the “pNP release at which the simulated digestion assay stagnated” value in the test on chymotrypsin and trypsin [3] (both chymotrypsin and trypsin 0.02 mM each, absorbance 405 nm, plateau) is about 30%. In the test with chymotrypsin and trypsin [3] (trypsin, chymotrypsin, or both enzymes, 0.02 mM each), the “enzyme requirement for pNP release” value is “only observed in the presence of both proteolytic enzymes”.

For “Ac-Lys[Tyr-Ala-Ala-Ala]-(2-(oxycodone-thionocarbamate)methyl)ethylamino ditrifluoroacetate [compound 20]”, in the test on C57BL/6J mice [4], the “withdrawal threshold (hot plate) latency after IP injection” value is listed as “did not alleviate acute pain”.

With `COc1ccc2c3c1O[C@H]1C(=O)CC[C@@]4(O)[C@@H](C2)N(C)CC[C@]314` [oxycodone], the “analgesic effect after IP injection” value with C57BL/6J mice [5] is “there is an analgesic effect”.

By Km is commonly meant the substrate concentration at which the rate is half of its maximum.
